From publication PMC7878489, “Gene delivery corrects N-acetylglutamate synthase deficiency and enables insights in the physiological impact of L-arginine activation of N-acetylglutamate synthase” (Scientific Reports, 2021)

How the values were obtained:
[1] = biological target: T1, hNAGS (human NAGS) (Homo sapiens, UniProt Q8N159); assay: NAGS specific activity; type: biochemical
T1 construct: appears to be tetramer
T1 sequence (Q8N159 51-534): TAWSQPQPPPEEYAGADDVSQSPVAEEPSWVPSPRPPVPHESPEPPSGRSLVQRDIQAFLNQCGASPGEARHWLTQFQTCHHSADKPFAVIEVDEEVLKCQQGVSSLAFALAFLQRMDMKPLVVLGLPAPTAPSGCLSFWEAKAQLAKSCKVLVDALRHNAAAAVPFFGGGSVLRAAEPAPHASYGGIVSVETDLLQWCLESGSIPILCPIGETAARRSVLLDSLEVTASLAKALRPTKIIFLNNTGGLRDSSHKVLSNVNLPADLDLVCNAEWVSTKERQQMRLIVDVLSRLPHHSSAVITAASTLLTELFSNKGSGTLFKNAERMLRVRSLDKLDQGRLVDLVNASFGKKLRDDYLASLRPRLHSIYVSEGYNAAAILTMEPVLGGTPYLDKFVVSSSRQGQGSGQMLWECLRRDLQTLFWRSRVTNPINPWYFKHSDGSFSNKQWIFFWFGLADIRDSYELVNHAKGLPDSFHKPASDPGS

[2] = biological target: T2, mNAGS (mouse NAGS) (Mus musculus, UniProt Q8R4H7); assay: NAGS specific activity; type: biochemical
T2 construct: appears to be tetramer
T2 sequence (Q8R4H7 51-527): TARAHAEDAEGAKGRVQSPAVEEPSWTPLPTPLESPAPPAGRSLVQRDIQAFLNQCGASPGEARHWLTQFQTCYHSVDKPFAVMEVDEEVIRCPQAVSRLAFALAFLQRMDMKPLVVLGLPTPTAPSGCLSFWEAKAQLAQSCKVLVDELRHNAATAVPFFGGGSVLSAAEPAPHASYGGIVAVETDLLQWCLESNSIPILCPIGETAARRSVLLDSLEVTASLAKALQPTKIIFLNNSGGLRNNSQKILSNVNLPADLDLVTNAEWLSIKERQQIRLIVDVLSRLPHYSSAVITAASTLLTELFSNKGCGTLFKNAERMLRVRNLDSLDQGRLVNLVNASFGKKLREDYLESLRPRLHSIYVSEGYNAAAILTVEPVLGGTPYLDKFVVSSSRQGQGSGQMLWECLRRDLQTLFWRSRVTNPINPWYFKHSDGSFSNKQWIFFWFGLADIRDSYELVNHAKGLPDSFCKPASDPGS

Structure (SMILES)	NAGS specific activity ([1]; co-substrate glutamate)	NAGS specific activity ([2]; co-substrate glutamate)	NAGS specific activity ([1]; co-substrate acetyl coenzyme A)	NAGS specific activity ([2]; co-substrate acetyl coenzyme A)
CC(=O)SCCNC(=O)CCNC(=O)[C@H](O)C(C)(C)COP(=O)(O)OP(=O)(O)OC[C@H]1O[C@@H](n2cnc3c(N)ncnc32)[C@H](O)[C@@H]1OP(=O)(O)O [acetyl coenzyme A]	catalyzes formation of N-acetylglutamate (NAG) from glutamate and acetyl coenzyme A	catalyzes formation of N-acetylglutamate (NAG) from glutamate and acetyl coenzyme A		
N[C@@H](CCC(=O)O)C(=O)O [glutamate]			catalyzes formation of N-acetylglutamate (NAG) from glutamate and acetyl coenzyme A	catalyzes formation of N-acetylglutamate (NAG) from glutamate and acetyl coenzyme A
